In general, IC50 refers to the midpoint of a concentration-inhibition curve. A higher IC50 goes with lower potency.

SMILES strings stand for the structures. Counter-ions that a name gives are not always drawn.

Here are results for 88 molecules from ChEMBL document CHEMBL1212812, “Multi-target spectral moment QSAR versus ANN for antiparasitic drugs against different parasite species” (Bioorg Med Chem, 2010).

This test has as its system Plasmodium falciparum. The test can be described thus: Antimicrobial activity against Plasmodium falciparum. The class given is functional, organism-based.
`C[C@H]1[C@H](OC(=O)CCC(=O)O)O[C@@H]2O[C@@]3(C)CC[C@H]4[C@H](C)CC[C@@H]1[C@@]24OO3` [ARTESUNATE] displayed an IC50 of 3 µM.
The value for `CC1C2c3ccccc3C(c3ccccc32)C1CN` (stereo not drawn) was 30 µM; that for `O=C1Nc2ccccc2/C1=C\C1CCCCN1` (stereo not drawn) was 21 µM.
The value for `O=C1Cc2c([nH]c3ccc(Br)cc23)-c2ccccc2N1` [KENPAULLONE] was 4 µM.
Consider `Nc1nc(N)c(-c2cccc(Cl)c2)c(CCCc2ccccc2)n1`, for which the IC50 was 6 µM.
The value for `c1ccc2c(c1)ccc1nc3ccccc3nc12` [BENZO[A]PHENAZINE] was 20 µM; that for `COc1cc(Cc2cnc(N)nc2N)ccc1OCc1ccccc1` was 5 µM.
The value for `CCc1nc(N)nc(N)c1Cc1ccc(OCc2ccccc2)c(OCc2ccccc2)c1` was 3 µM.
For `Cc1cccc(NC(P(=O)(O)O)P(=O)(O)O)n1` the value was 200 µM; for `CC1(C)CCc2c(c3ccccc3c3nc4ccccc4nc23)O1`, 20 µM; for `CC1=C(O)[C@@](C)(CCC(C)CCCC(C)C)SC1=O` (stereo partly drawn) [THIOLACTOMYCIN 6], 71 µM.
In the case of `CCCCCCCCCC(O)(P(=O)(O)O)P(=O)(O)O`, the IC50 amounted to 1 µM.
For `CCCCC1C(=O)N(c2ccccc2)N(c2ccc(O)cc2)C1=O` (stereo not drawn) [OXYPHENBUTAZONE ANHYDROUS] the value was 15 µM; for `O=C1Nc2ccc(Br)cc2/C1=C/C(=O)c1ccccc1`, 3 µM.
The value for `COc1cc(COc2ccc(Cc3cnc(N)nc3N)cc2)cc(OC)c1OC` was 21 µM; that for `CC(C)NC(=N)NC(=N)Nc1ccc(Cl)cc1` [PROGUANIL] was 36 µM.
For `COc1cc(NC(C)CCCN)c2nccc(C)c2c1OCc1cccc(C(F)(F)F)c1` (stereo not drawn) the value was 2 µM.
In turn, `NC1=NC(c2ccccc2)N(c2cccc(Cl)c2)C(N)=N1` (stereo not drawn) gave an IC50 of 1 µM.
For `CS(=O)(=O)Nc1ccc(Nc2c3ccc(N)cc3nc3cc(N)ccc23)cc1` the value was 1 µM.
For `CNCCCN1c2ccccc2CCc2ccccc21` [DESIPRAMINE] the value was 12 µM; for `COc1cc(Cc2c(C)nc(N)nc2N)ccc1OCc1ccccc1`, 3 µM; for `CC[C@H]1CN2CCc3c([nH]c4ccc(O)cc34)[C@@H]2C[C@@H]1C[C@H]1c2[nH]c3ccccc3c2CCN1C`, 1 µM.
For `CCCCCCC(O)(P(=O)(O)O)P(=O)(O)O` the value was 4 µM; for `C=C(C)[C@@H]1CC[C@]2(C)CC[C@]3(C)[C@H](CC[C@@H]4[C@@]5(C)CC[C@H](O)C(C)(C)[C@@H]5CC[C@]43C)[C@@H]12` [LUPEOL], 28 µM; for `O=P(O)(O)C(Nc1ccc(Cl)nc1)P(=O)(O)O`, 200 µM.
`O=P(O)(O)C(NC1CCCC1)P(=O)(O)O` [(CYCLOPENTYLAMINO)METHYLENEDIPHOSPHONIC ACID] came in with a half-maximal inhibitory concentration (IC50) of 200 µM.
For `NC1=NC(c2cccc(Oc3cccc(C(F)(F)F)c3)c2)N(c2cccc(Cl)c2)C(N)=N1` (stereo not drawn) the value was 3 µM.
The value for `O=C1Nc2ccccc2/C1=C\c1ccc(Cl)cc1` was 37 µM.
For `NNC(=O)c1ccc(N2CCN(c3ccc(C(=O)NN)cc3)CC2)cc1`, the concentration for half-maximal inhibition (IC50) turned out to be 1 µM.
For `NC1=NC(c2ccc(Oc3ccccc3)cc2)N(c2ccc(Cl)cc2)C(N)=N1` (stereo not drawn) the value was 7 µM; for `CC(C)(C)C(=O)/C=C1\C(=O)Nc2ccccc21`, 44 µM.
The value for `CC(C)N(C(C)C)C(P(=O)(O)O)P(=O)(O)O` [(DIISOPROPYLAMINO)METHYLENEDIPHOSPHONIC ACID] was 200 µM; that for `O=C1C(O)=C([C@H]2CC[C@H](c3ccc(Cl)cc3)CC2)C(=O)c2ccccc21` [ATOVAQUONE] was 1 µM; that for `Nc1nc(N)c(-c2cccc(Cl)c2)c(CCCO)n1` was 1 µM.
For `N/C(=N\O)c1ccc(O)c(O)c1` the value was 23 µM.
`O=C1Nc2ccccc2/C1=C\c1ccc(O)cc1` came in with a half-inhibitory concentration (IC50) of 42 µM.
Molecule `CC1C2c3ccccc3C(c3ccccc32)C1C(=O)Nc1ccccn1` (stereo not drawn) displayed an IC50 of 214 µM.
As to `NC1=NC(c2cccc(Oc3cc(Cl)cc(Cl)c3)c2)N(c2cccc(Cl)c2)C(N)=N1` (stereo not drawn), the IC50 came out at 6 µM. Against the preceding molecule, the IC50 is about 36-fold lower.
The value for `COc1cc(NC(C)CCCN)c2nccc(C)c2c1OCCCCCc1ccc(C(F)(F)F)cc1` (stereo not drawn) was 2 µM.
With `CCc1nc(N)nc(N)c1Cc1ccc(OCc2ccccc2)c(OC)c1`, half-maximal inhibition (IC50) was put at 5 µM.
The value for `O=C(NO)c1ccc(O)c(O)c1` was 16 µM; that for `CC1C2c3ccccc3C(c3ccccc32)C1C(=O)/N=N/N(C)C` (stereo not drawn) was 51 µM.
The value for `Nc1nc(N)c(-c2cccc(Cl)c2)c(CCCOC(=O)c2ccccc2)n1` was 8 µM.
The value for `CN(C)C(=O)C1C2c3ccccc3C(c3ccccc32)C1C(=O)O` (stereo not drawn) was 36 µM; that for `CN(C)CCCN1c2ccccc2Sc2ccc(Cl)cc21` [CHLORPROMAZINE] was 28 µM; that for `CN(C)CC1C2c3ccccc3C(c3ccccc32)C1CO` (stereo not drawn) was 35 µM.
Turning to `CC1C2c3ccccc3C(c3ccccc32)C1C(=O)/N=C/N(C)C` (stereo not drawn), the IC50 came to 49 µM.
For `CC[N+](CC)(CC)CCCCCCCC[N+](CC)(CC)CC` the value was 1 µM; for `COc1cc(C)c2c(Oc3cccc(C(F)(F)F)c3)c(OC)cc(NC(C)CCCN)c2n1` (stereo not drawn) [TAFENOQUINE], 147 µM.
The value for `Oc1ccc(Nc2ccnc3cc(Cl)ccc23)cc1` was 19 µM; that for `NC(=O)C1C2c3ccccc3C(c3ccccc32)C1C(N)=O` (single isomer, unassigned) was 42 µM; that for `CC(CCCN1CCCC1)Nc1ccnc2cc(Cl)ccc12` (stereo not drawn) [Chloroquine-pyrolidinyl] was 44 µM.
The value for `COc1cc(Cc2cnc(N)nc2N)ccc1OCc1cc(OC)c(OC)c(OC)c1` was 31 µM.
Regarding `N#C/C(C(N)=O)=C1/C(=O)Nc2ccccc21`, the IC50 was found to be 24 µM.
For `Cc1c(OCC(F)(F)F)ccnc1C[S+]([O-])c1nc2ccccc2[nH]1` (stereo not drawn) [LANSOPRAZOLE] the value was 11 µM.
The value for `CCc1nc(N)nc(N)c1-c1cccc(Cl)c1` was 9 µM; that for `CCCNC(=O)CC[C@@H](C)[C@H]1CC[C@H]2[C@@H]3[C@H](OC(C)=O)C[C@@H]4CC5(CC[C@]4(C)[C@H]3CC[C@]12C)OOC1(CCC(CC)CC1)OO5` (single isomer, unassigned; form 2) was 1 µM; that for `CO[C@H]1O[C@@H]2O[C@@]3(C)CC[C@H]4[C@H](C)CC[C@@H]([C@H]1C)[C@@]24OO3` was 1000 µM.
For `CC(C)=CCCC(C)CC[C@@]1(C)SC(=O)C(C)=C1O` (stereo partly drawn) [THIOLACTOMYCIN 5] the value was 57 µM; for `N=C(N)NCCCCCCCCCCNC(=N)N` [SYNTHALIN], 16 µM; for `CN(C)[C@@H]1C(O)=C(C(=O)NCN2CCCC2)C(=O)[C@@]2(O)C(O)=C3C(=O)c4c(O)cccc4[C@@](C)(O)[C@H]3C[C@@H]12` [ROLITETRACYCLINE], 21 µM.
Regarding `CCCOc1ccc(C2N=C(N)N=C(N)N2c2cccc(Cl)c2)cc1` (stereo not drawn), the midpoint of inhibition, the IC50, lay at 3 µM. This IC50 lies about 7-fold lower than the previous one.
For `CCCCCCCCCCCOCCOCCOCCOCCOCCO` the value was 68 µM.
`CCCCCCCCCCCCCCCC[N+](C)(C)CCCS(=O)(=O)[O-]` displayed a half-maximal inhibitory concentration (IC50) of 65 µM.
The value for `CC(=O)[C@H]1CC[C@H]2[C@@H]3CCC4=CC(=O)CC[C@]4(C)[C@H]3CC[C@]12C` [PROGESTERONE] was 24 µM; that for `CC(C)(C)c1cc(NC(P(=O)(O)O)P(=O)(O)O)cc(C(C)(C)C)c1` was 200 µM; that for `c1ccc(N2CCN(c3ccccc3)C2c2ccc(N3CCN(c4ccc(C5N(c6ccccc6)CCN5c5ccccc5)cc4)CC3)cc2)cc1` was 1 µM.
The value for `CC(C)[C@H](CO)Nc1nc(Nc2cccc(Cl)c2)c2ncn(C(C)C)c2n1` [PURVALANOLA] was 3 µM; that for `N/C(=N\O)c1cc(O)c(O)c(O)c1` was 38 µM.
For `CC(=O)/C=C1\C(=O)Nc2ccccc21` the value was 37 µM; for `NC(=O)C1=CC2c3ccccc3C1c1ccccc12`, 35 µM.
Molecule `CCCCCCCCCCCCCCCCOS(=O)(=O)O` [SODIUM HEXADECYL SULFATE] came in with an IC50 of 145 µM.
As for `CCCCCCCCCCCC(O)(P(=O)(O)O)P(=O)(O)O`, the IC50 came to 1 µM.
Molecule `O=C(NO)c1cccc(O)c1O` showed a concentration for half-maximal inhibition (IC50) of 6 µM.
In turn, `CN(C)C(=O)C1=CC2c3ccccc3C1c1ccccc12` showed an IC50 of 32 µM. This IC50 lies about 5.3-fold higher than the previous one.
`O=P(O)(O)C(NC1CCCCCCC1)P(=O)(O)O` [(CYCLOOCTYLAMINO)METHYLENEDIPHOSPHONIC ACID] gave an IC50 of 200 µM.
The value for `CO[C@H]1/C=C/O[C@@]2(C)Oc3c(C)c(O)c4c(O)c(c(/C=N/N5CCN(C)CC5)c(O)c4c3C2=O)NC(=O)/C(C)=C\C=C\[C@H](C)[C@H](O)[C@@H](C)[C@@H](O)[C@@H](C)[C@H](OC(C)=O)[C@@H]1C` [RIFAMPIN] was 1 µM; that for `CC1(C)Oc2c(c3nc4ccccc4nc3c3ccccc23)CC1Br` (stereo not drawn) was 9 µM.
In turn, `NC1=NC(c2cccc(Oc3ccc(Cl)cc3)c2)N(c2cccc(Cl)c2)C(N)=N1` (stereo not drawn) showed an IC50 of 4 µM.
For `CCOC(=O)c1ccc(N2CCN(c3ccc(C(=O)OCC)cc3)CC2)cc1` the value was 1 µM.
For `CC1(C)Oc2c(c3nc4ccccc4nc3c3ccccc23)CC1I` (stereo not drawn) the value was 2 µM; for `CC1=C(O)[C@@](C)(CCC(C)C)SC1=O` [THIOLACTOMYCIN 3], 259 µM; for `C/C=C1/CN2CC[C@]34c5ccccc5N5C(=O)C([C@H]6C[C@]78c9ccccc9N9C(=O)C=C[C@@H]([C@H]97)[C@H]7C[C@@H]8N6C/C7=C/C)=C[C@H]([C@H]53)[C@H]1C[C@H]24` [SUNGUCINE], 2 µM.
In turn, `C=C[C@@H]1CN2CC[C@@]3(CNc4cc(O)ccc43)[C@@H]2C[C@@H]1C[C@H]1c2[nH]c3ccccc3c2CCN1C` [ISOSTRYCHNOFOLINE] came in with a half-inhibitory concentration (IC50) of 6 µM.
For `COc1cc(NC(C)CCCN)c2nccc(C)c2c1OCCCCCc1ccccc1` (stereo not drawn) the value was 5 µM.
For `CCOC(=O)C1C2c3ccccc3C(c3ccccc32)C1N(C)C` (stereo not drawn) the value was 30 µM; for `NC1=NC(c2cccc(Oc3ccccc3)c2)N(c2cccc(Cl)c2)C(N)=N1` (stereo not drawn), 4 µM.
The value for `CN(C)c1ccc(Nc2c3ccccc3nc3cc(Cl)ccc23)cc1` was 1 µM.
